Data: article PMC4186413, “Identification of metabolic pathways and enzyme systems involved in the in vitro human hepatic metabolism of dronedarone, a potent new oral antiarrhythmic drug” (Pharmacology Research & Perspectives, 2014)

What was measured:
[1] = biological target: T1, MAO (Homo sapiens, UniProt P21397); experiment: Contribution of MAO to hepatocyte clearance (clorgyline inhibitory effect); format: in vitro ADME; conditions: for Effect of clorgyline on metabolism in hepatocytes: 5 μmol/L drug; for fm MAO, Mean ± SD: mean of hepatocyte preparations
T1 construct: host or cells: cryopreserved human hepatocytes in primary culture
T1 sequence (P21397 1-527): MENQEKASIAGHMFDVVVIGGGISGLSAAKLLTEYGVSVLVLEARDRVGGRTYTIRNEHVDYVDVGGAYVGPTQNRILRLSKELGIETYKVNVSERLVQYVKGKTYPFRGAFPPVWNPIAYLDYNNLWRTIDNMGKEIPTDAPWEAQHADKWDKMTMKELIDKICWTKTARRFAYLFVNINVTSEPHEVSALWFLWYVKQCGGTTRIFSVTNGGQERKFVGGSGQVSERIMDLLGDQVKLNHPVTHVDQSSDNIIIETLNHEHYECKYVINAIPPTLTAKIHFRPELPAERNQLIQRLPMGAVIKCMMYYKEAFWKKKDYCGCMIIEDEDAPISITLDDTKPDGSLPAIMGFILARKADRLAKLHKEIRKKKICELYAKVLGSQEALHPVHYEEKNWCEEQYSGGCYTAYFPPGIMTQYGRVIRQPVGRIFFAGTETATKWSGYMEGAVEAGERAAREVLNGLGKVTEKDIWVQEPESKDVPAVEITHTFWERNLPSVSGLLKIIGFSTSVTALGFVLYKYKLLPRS
Protocol: (§1) Experiments were performed in 48-well plastic plates coated with rat tail Collagen type I. Plates were seeded with 0.16 × 10^5 hepatocytes per well in a final volume of 0.2 mL and incubated at 37°C under a 95% humidified air and 5% CO2 atmosphere. After 3 h during which cells were allowed to attach, the medium was renewed with 0.1 mL serum-free medium. Then, the investigated drug or metabolic probe(s) were added directly to the incubation medium in the absence or the presence of inhibitors such as either ketoconazole as a specific and potent CYP3A inhibitor (3 μmol/L final concentration), clorgyline (0.25 μmol/L final concentration) as a potent MAO-A inhibitor or ABT as a potent but nonselective CYP isoforms inhibitor (1 mmol/L final concentration) (Fabre et al. [1988]; Bourrié et al. [1996]; Klieber et al. [2008]). Regardless of the final concentration investigated, the final solvent (DMSO) concentration never exceeded 0.2% (v/v).
(§2) To determine the metabolism of the different compounds (metabolic probes, dronedarone, N-debutyl-dronedarone, propanoic acid-dronedarone, phenol-dronedarone, and C-dealkyl-dronedarone), kinetic studies were performed over 0–24 h. For each time point, 0.1 mL of acetonitrile was added to the specific well for protein precipitation, and both extracellular medium and the cell fraction were scraped together. Cell extracts were transferred to a glass tube and stored at −20°C until analysis. Before analysis, cell homogenates were sonicated for a few seconds, homogenized and centrifuged at 6000 g for 10 min. Supernatant fluids were then analyzed for the different drugs and their specific metabolites.
(§3) The fraction metabolized (fm) by MAO, CYP3A or total CYPs was determined using the following equation: [drawing 3] where: kei is the elimination rate constant (expressed in h^−1) in the presence of the inhibitor.
(§4) The kinetics of drug disappearance were investigated using four different cryopreserved human hepatocyte preparations in primary cultures following incubation with either dronedarone or its metabolites at a concentration of 5 μmol/L. Incubations were performed either in the absence, that is control conditions, or in the presence of enzyme system inhibitors such as 3 μmol/L ketoconazole (specific and potent inhibitor of CYP3A4/5), 1 mmol/L ABT (a potent and […] inhibitor of total CYPs), or 0.25 μmol/L clorgyline (a potent MAO-A inhibitor) (Dorris [1982]). Kinetic studies were performed over 24 h.

[2] = test system: CYP3A4; experiment: Contribution of CYP3A4 to hepatocyte clearance (ketoconazole inhibitory effect); format: in vitro ADME, human; conditions: for Effect of ketoconazole on metabolism in hepatocytes: 5 μmol/L drug; for fm CYP3A4, Mean ± SD: mean of hepatocyte preparations
Protocol: as §1, §2, §3, §4

[3] = test system: UGT1A1, UGT1A3, UGT1A4, UGT1A6, UGT1A7, UGT1A8, UGT1A9, UGT1A10, UGT2B4, UGT2B7, UGT2B15, and UGT2B17; experiment: Glucuronidation by the panel of recombinant human UGT isoforms; format: in vitro ADME; conditions: 1 mg/mL, 5 μmol/L, 30 min, UDPGA
Excerpt: Recombinant human CYPs (Supersomes™; BD Gentes, Woburn, MA: CYP1A1, CYP1A2, CYP2A6, CYP2B6, CYP2C8, CYP2C9, CYP2C18, CYP2C19, CYP2D6, CYP2E1, CYP3A4 and CYP3A5), FMOs (Supersomes™: FMO1, FMO3, FMO5), MAOs (Supersomes™: MAO-A and MAO-B), and UGTs (Supersomes™: UGT1A1, UGT1A3, UGT1A4, UGT1A6, UGT1A7, UGT1A8, UGT1A9, UGT1A10, UGT2B4, UGT2B7, UGT2B15, and UGT2B17) expressed in baculovirus-infected insect cells and control microsomes from insect cells infected with wild-type baculovirus were all obtained from BD Gentest (Woburn, MA).
For glucuronidation pathways, the assay mixture was composed of human liver microsomes (2 mg·mL^−1) or microsomes of baculovirus-infected cells expressing human UGTs (1 mg·mL^−1), uridine 5′-diphosphoglucuronic acid (UDPGA) (3 mmol/L), 100 mmol/L Tris HCl (pH 7.4) containing 5 mmol/L MgCl2 and 5 μmol/L of the investigated compound dissolved in DMSO in a final volume of 500 μL. The final concentration of DMSO in the reaction mixture was less than 1% (v/v). Initial rate conditions with respect to time and protein concentration for both the disappearance of unchanged drug and the formation of respective metabolites were established in preliminary studies. The microsomal mixture was first incubated for 10 min at 4°C in the presence of alamethicin (0.125 mg·mL^−1), then the reaction was initiated by addition of UDPGA (30 mmol/L aqueous solution) to achieve a final concentration of 3 mmol/L for UGT-dependent reactions, incubated at 37°C and stopped after 0–30 min by addition of one volume of ice-cold acetonitrile. […]
Figure 7 Contribution of individual UGTs to the glucuronidation of propanoic acid-dronedarone and phenol-dronedarone. […] Unchanged drugs were quantified by LC/MS-MS relative to the synthetic references as described in Materials and Methods. Data are expressed as the percentage of glucuronidation.

[4] = HU-1358, 0.25 μmol/L clorgyline
[5] = IVT-IBG, 0.25 μmol/L clorgyline

Effect of clorgyline on metabolism in hepatocytes ([1]; 0.25 μmol/L clorgyline)	Effect of ketoconazole on metabolism in hepatocytes ([2]; 3 μmol/L ketoconazole)	Glucuronidation by recombinant human UGT isoforms [3]	fm MAO ([1]; BD-91, 0.25 μmol/L clorgyline) [%]	fm MAO [1, 4] [%]	fm MAO [1, 5] [%]	fm MAO, Mean ± SD ([1]; 0.25 μmol/L clorgyline) [%]	fm CYP3A4 ([2]; BD-91, 3 μmol/L ketoconazole) [%]	fm CYP3A4 ([2]; BD-296, 3 μmol/L ketoconazole) [%]	fm CYP3A4 ([2]; HU-1358, 3 μmol/L ketoconazole) [%]	fm CYP3A4 ([2]; IVT-IBG, 3 μmol/L ketoconazole) [%]	fm CYP3A4, Mean ± SD ([2]; 3 μmol/L ketoconazole) [%]	fm MAO ([1]; BD-296, 0.25 μmol/L clorgyline) [%]	Structure (SMILES)
no effect	no effect	No glucuronidation was observed	–	–	–	–	–	–	–	–	–	–	CCCCN(CCCC)CCCOc1ccc(C(=O)O)cc1 [C-dealkyl-dronedarone]
minor inhibitory effect	predominant inhibitory effect	No glucuronidation was observed	18	23	43	29 ± 14	95	95	84	80	89 ± 7	–	CCCCc1oc2ccc(NS(C)(=O)=O)cc2c1C(=O)c1ccc(OCCCN(CCCC)CCCC)cc1.Cl [Dronedarone, N-(2-Butyl-3-(4-(3-(dibutylamino)propoxy)benzoyl)-5-benzofuranyl)methanesulfonamide, hydrochloride]
potently inhibited	no inhibitory effect	No glucuronidation was observed	88	86	83	84 ± 3	7	4	8	0	5 ± 3	80	CCCCNCCCOc1ccc(C(=O)c2c(CCCC)oc3ccc(NS(C)(=O)=O)cc23)cc1 [N-debutyl-dronedarone]
did not contribute	did not contribute	–	–	–	–	–	–	–	–	–	–	–	CCCCc1oc2ccc(NS(C)(=O)=O)cc2c1C(=O)c1ccc(O)cc1 [Phenol-dronedarone]
no inhibitory effect	very minor inhibitory effect	–	12	0	0	3 ± 5	36	41	33	34	36 ± 3	0	CCCCc1oc2ccc(NS(C)(=O)=O)cc2c1C(=O)c1ccc(OCCC(=O)O)cc1 [Propanoic acid-dronedarone]
